Reference: article PMC12189931, “In Vitro Effects of Some Antibiotics on Purified β-Glucosidases from Rat Liver and Kidney Tissues” (Antibiotics, 2025)
Values joined by “and” are separate entries in the source; they are usually repeats but may differ in a detail not shown here. Equal values may be shown once. “Also recorded” adds a separate entry of the source.

Assays:
[1] = tested on: G6PD purified from sheep erythrocytes; parameters: method as in PMID 12530481; conditions: cited from earlier work
[2] = target: glucose-6-phosphate dehydrogenase (G6PD) purified from human erythrocytes; parameters: method as in PMID 10712835; conditions: cited from earlier work; for IC50: G6PD purified from human erythrocytes
[3] = tested on: glutathione reductase (GR) purified from mouse liver; parameters: method as in PMID 32196862; conditions: cited from earlier work
[4] = target: glutathione reductase (GR) purified from mouse kidney tissue; parameters: method as in PMID 32196862; conditions: cited from earlier work
rat liver BGL = target: T1, rat liver BGL (Rattus norvegicus, UniProt A0A0G2JVP8); assay: In vitro inhibition of β-glucosidase purified from rat liver (p-NPG substrate); type: biochemical; conditions: for effect on rat liver BGL activity: tested concentration ranges 5–250 mM depending on antibiotic
T1 construct: For this purpose, BGLs were purified from rat liver and kidney tissues; from tissue; host or cells: rat liver
T1 sequence (A0A0G2JVP8 1-469): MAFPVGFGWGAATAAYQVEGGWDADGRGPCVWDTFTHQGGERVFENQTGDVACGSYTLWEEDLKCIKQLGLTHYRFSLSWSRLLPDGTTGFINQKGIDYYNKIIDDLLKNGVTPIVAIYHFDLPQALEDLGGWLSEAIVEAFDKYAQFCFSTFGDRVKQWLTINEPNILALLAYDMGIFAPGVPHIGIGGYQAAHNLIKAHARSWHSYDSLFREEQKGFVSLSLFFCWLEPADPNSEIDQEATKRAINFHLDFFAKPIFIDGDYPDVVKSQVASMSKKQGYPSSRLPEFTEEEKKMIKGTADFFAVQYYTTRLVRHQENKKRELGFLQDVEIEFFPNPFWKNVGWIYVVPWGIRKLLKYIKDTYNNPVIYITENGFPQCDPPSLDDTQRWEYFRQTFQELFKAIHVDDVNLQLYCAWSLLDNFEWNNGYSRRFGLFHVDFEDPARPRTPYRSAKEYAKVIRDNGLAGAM
Procedure: (§1) Rat liver and kidney BGL activities were determined spectrophotometrically using a ThermoFisher Scientific Multiskan™ FC microplate (Thermo Fisher Scientific, Waltham, MA, USA). p-NPG dissolved in 50 mM of pH 5.5 Na–Ac buffer was used as the substrate. In this method, enzyme activity was determined by photometrically measuring the determination of p-nitrophenol (p-NP) released in the presence of BGLs spectrophotometrically at 405 nm. Calculations were made with the standard curve of p-NP (Cat. No. 241326, Sigma) prepared at 405 nm. One enzyme unit (EU) was defined as the amount of μmol p-nitrophenol released per minute in the reaction medium under the specified experimental conditions.
(§2) The half-maximal inhibitory concentration (IC50) of antibiotics was determined using a constant concentration of p-NPG of 1.75 mM. At least ten different concentration ranges of each antibiotic were tested to evaluate the in vitro effects of ampicillin (5–250 mM), amoxicillin–clavulanate (5–70 mM), cefuroxime (5–150 mM), cefazolin sodium (10–165 mM), ceftriaxone (10–160 mM), and gentamicin (5–50 mM). Enzyme activity was measured in the presence of different antibiotic concentrations, and BGL activity in the medium without antibiotics, which was accepted as the control group, was determined as 100% reference value. Enzyme activity results were expressed as % activity and the inhibitory concentration (IC50) that reduced enzyme activity by 50% was calculated using GraphPad Prism software. All experiments were performed in three replicates for each antibiotic concentration.
(§3) Lineweaver–Burk double-reciprocal plots were used to determine the inhibitory effect of antibiotics and the inhibition mechanisms. The curve obtained when there was no inhibitor in the reaction medium was accepted as the control (I0); the intersection points of the control curve with the lines drawn in the presence of the inhibitor at two different concentrations were analyzed. In line with these intersection points, the relevant inhibition types were determined, and the inhibitory constants (Ki) of the inhibitors were calculated.

rat kidney BGL = target: T2, rat kidney BGL (Rattus norvegicus, UniProt A0A0G2JVP8); assay: In vitro inhibition of β-glucosidase purified from rat kidney (p-NPG substrate); type: biochemical; conditions: for inhibition type / IC50 / Ki: Kidney BGL; for inhibition type: Lineweaver–Burk, NI: No observed inhibition; for IC50: p-NPG 1.75 mM, GraphPad Prism; for Ki: Lineweaver–Burk plots; for effect on rat kidney BGL activity: tested concentration ranges 5–250 mM depending on antibiotic
T2 construct: For this purpose, BGLs were purified from rat liver and kidney tissues; from tissue; host or cells: rat kidney
T2 sequence (A0A0G2JVP8 1-469): T1 sequence (A0A0G2JVP8 1-469)
Procedure: as §1, §2, §3

[5] = tested on: glutathione reductase (GR) purified from rat lung tissue; parameters: method as in PMID 26758606; conditions: cited from earlier work
[6] = tested on: 6-phosphogluconate dehydrogenase (6PGD) purified from rat lung tissue; parameters: method as in PMID 26758606; conditions: cited from earlier work
[7] = tested on: glucose-6-phosphate dehydrogenase (G6PD) purified from rat lung tissue; parameters: method as in PMID 26758606; conditions: cited from earlier work
[8] = tested on: glutathione reductase (GR) purified from human erythrocytes; parameters: method as in PMID 15895687; conditions: cited from earlier work

gentamicin sulfate
inhibition type [1]: noncompetitively
IC50 [2]: 12 mM

CC1(C)S[C@@H]2[C@H](NC(=O)[C@H](N)c3ccc(O)cc3)C(=O)N2[C@H]1C(=O)O [amoxicillin]
inhibition / inhibition type [3]: competitive
IC50 [4]: 86 mM
inhibition / inhibition type [4]: noncompetitive

Cc1nnc(SCC2=C(C(=O)O)N3C(=O)[C@@H](NC(=O)Cn4cnnn4)[C@H]3SC2)s1 [Cefazolin sodium]
effect on rat liver BGL activity (rat liver BGL): did not show a significant inhibitory effect
inhibition / inhibition type [3]: did not inhibit
inhibition / inhibition type [4]: did not inhibit
inhibition type (rat kidney BGL): Noncompetitive
inhibition type (rat kidney BGL; listed as cefazolin sodium): noncompetitively
IC50 (rat kidney BGL): 98.8 mM
inhibition type ([2]; human erythrocyte G6PD): noncompetitive

CC1(C)S[C@@H]2[C@H](NC(=O)[C@H](N)c3ccccc3)C(=O)N2[C@H]1C(=O)O [Ampicillin]
loss in liver BGL activity (rat liver BGL; 40 mM ampicillin in the medium): 10%
Ki (rat liver BGL; Liver BGL, Lineweaver–Burk plots): 14.3 ± 3.35 mM
inhibition type (rat liver BGL; Liver BGL, Lineweaver–Burk, NI: No observed inhibition): competitively; also recorded: Competitive
IC50 (rat liver BGL; Liver BGL, p-NPG 1.75 mM, GraphPad Prism): 70 mM and 69.6 mM
Ki (rat kidney BGL): 28.4 ± 6.35 mM
inhibition type (rat kidney BGL): noncompetitively; also recorded: Noncompetitive
IC50 (rat kidney BGL): 25 mM and 25.3 mM

CO/N=C(\C(=O)N[C@@H]1C(=O)N2C(C(=O)O)=C(CSc3nc(=O)c(=O)[nH]n3C)CS[C@H]12)c1csc(N)n1 [Ceftriaxone]
effect on rat liver BGL activity (rat liver BGL): did not show a significant inhibitory effect
effect on rat kidney BGL activity (rat kidney BGL): did not reduce kidney BGL activity; also recorded: did not significantly inhibit; also recorded: did not exhibit inhibitory effects

CO/N=C(\C(=O)N[C@@H]1C(=O)N2C(C(=O)O)=C(COC(N)=O)CS[C@H]12)c1ccco1 [Cefuroxime]
effect on rat liver BGL activity (rat liver BGL): did not show a significant inhibitory effect
Ki (rat kidney BGL): 18.7 ± 12.7 mM
inhibition type (rat kidney BGL): Uncompetitive
IC50 (rat kidney BGL): 76.9 mM
inhibition type [5]: noncompetitively
inhibition type [6]: noncompetitively
inhibition type [7]: noncompetitively

CNC(C)C1CCC(N)C(OC2C(N)CC(N)C(OC3OCC(C)(O)C(NC)C3O)C2O)O1 (centres unmarked) [Gentamicin]
effect on rat liver BGL activity (rat liver BGL; listed as gentamicin): did not show a significant inhibitory effect; also recorded: increased enzyme activity; also recorded: no inhibitory effect
inhibition / inhibition type [3]: noncompetitive
inhibition / inhibition type [4]: did not inhibit
effect on enzyme activity [8]: increase the activity
effect on rat kidney BGL activity (rat kidney BGL): did not reduce kidney BGL activity
effect on rat kidney BGL activity (rat kidney BGL; listed as gentamicin): did not significantly inhibit; also recorded: did not exhibit inhibitory effects; also recorded: no effect on enzyme activity
inhibition type [5]: competitively
inhibition type [6]: competitively
inhibition type [7]: competitively

CO/N=C(\C(=O)N[C@@H]1C(=O)N2C(C(=O)O)=C(COC(N)=O)CS[C@H]12)c1ccco1 [sodium cefuroxime]
IC50 [2]: 6.7 mM
